According to patent US20110118120A1, “SYNERGISTIC HERBICIDAL COMPOSITION CONTAINING AMINOPYRALID AND SULFONYLUREAS” (Dow AgroSciences LLC, priority 2009, published 2011):

Test system: milk thistle (Sonchus oleraceus; SONOL)
Assay: Postemergence herbicidal activity of mixtures under field conditions (percent visual weed control)
Type: in vivo
Settings: postemergence foliar, spring wheat
Experimental: These trials were conducted under field conditions in Northern New South Wales, Australia. Trials sites were located in commercially grown fields of spring wheat (Triticum aestivum). The wheat crop was grown using normal cultural practices for fertilization, seeding, and maintenance to ensure good growth of the crop and the weeds. The trial was conducted using normal research methodology. Trial plots were marked out measuring 3 meters (m) by 10 m. All treatments were applied using a randomized complete block trial design with 4 replications per treatment. The trial sites had naturally occurring populations of weeds present. The weed spectrum included, but was not limited to, milk thistle (Sonchus oleraceus; SONOL); wire-weed (Polygonum aviculare; POLAV); turnip weed (Rapistrum rugosum; RASRU); Medick, Medicago spp. (MEDSS); Patersons curse (Echium plantagineum; EPHIL). The weeds were treated with postemergence foliar applications when they were between cotyledons and 8 true leaves.
Treatments consisted of tank mixes of soluble granules of aminopyralid potassium salt and commercially available formulations of metsulfuron-methyl (Ally™ herbicide, water dispersible granules) and MCPA iso-octyl (emulsifiable concentrate). The ‘carrier’ application volume was using 100 liters per hectare (L/ha) of water. […]

SMILES | % Control SONOL Ob (percent control observed) (Aminopyralid 3.75 g ae/ha alone) | % Control SONOL Ob (percent control observed) (Metsulfuron 3 g ai/ha alone)
Nc1cc(Cl)nc(C(=O)O)c1Cl [Aminopyralid, aminopyralid] | 18% | 
COC(=O)c1ccccc1S(=O)(=O)NC(=O)Nc1nc(C)nc(OC)n1 [Metsulfuron, metsulfuron-methyl] |  | 29%
